Test results: patent US20100022491A1, “4-HYDROXY-2-OXO-2,3-DIHYDRO-1,3-BENZOTHIAZOL-7YL COMPOUNDS FOR MODULATION OF B2-ADRENORECEPTOR ACTIVITY” (ASTRAZENECA AB, priority 2006, published 2010)
Where a name gives a salt, the structure may show the parent alone.

Tests used:
[1] = biological target: T1, recombinant human α1D receptor (Homo sapiens, UniProt P25100); assay: Adrenergic α1D selectivity binding assay ([3H]-prazosin); conditions: inhibition of [3H]-prazosin (0.3 nM) binding, HEK293 membranes; for IC50: read-out: α1 bind pIC50 (converted)
T1 construct: expressed in transfected cells; host or cells: HEK293
T1 sequence (P25100 1-572): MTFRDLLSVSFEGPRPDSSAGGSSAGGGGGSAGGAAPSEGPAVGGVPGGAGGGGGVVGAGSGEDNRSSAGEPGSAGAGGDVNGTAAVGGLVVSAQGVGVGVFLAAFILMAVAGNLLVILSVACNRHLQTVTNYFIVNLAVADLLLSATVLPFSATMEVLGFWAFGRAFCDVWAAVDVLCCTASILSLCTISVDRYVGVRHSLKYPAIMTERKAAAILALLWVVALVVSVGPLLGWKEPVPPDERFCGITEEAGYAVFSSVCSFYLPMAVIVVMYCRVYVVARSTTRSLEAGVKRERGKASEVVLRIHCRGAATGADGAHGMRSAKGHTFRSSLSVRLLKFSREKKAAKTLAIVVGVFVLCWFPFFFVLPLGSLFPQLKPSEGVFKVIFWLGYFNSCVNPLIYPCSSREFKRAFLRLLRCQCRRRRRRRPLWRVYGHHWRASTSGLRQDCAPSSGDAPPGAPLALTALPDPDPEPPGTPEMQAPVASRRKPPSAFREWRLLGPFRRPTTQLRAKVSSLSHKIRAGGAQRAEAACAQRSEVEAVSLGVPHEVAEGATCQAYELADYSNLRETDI
Method in brief: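 HEK293 membranes with recombinant human α1D receptor incubated 2 h at room temperature with 0.3 nM [3H]-prazosin and compound in 50 mM HEPES, 1 mM EDTA, 0.1% gelatin, pH 7.4; BMY7378 (10 μM) defined non-specific binding. Filter-bound radioactivity counted; pIC50 from four-parameter logistic fit.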

[2] = biological target: T2, recombinant human adrenergic beta 1 receptors (Homo sapiens, UniProt P08588); assay: Adrenergic β1 selectivity binding assay ([125I]-Iodocyanopindolol); conditions: inhibition of [125I]-Iodocyanopindolol (0.036 nM) binding; for IC50: read-out: β1 bind p IC50 (converted)
T2 construct: purchased Euroscreen
T2 sequence (P08588 whole entry): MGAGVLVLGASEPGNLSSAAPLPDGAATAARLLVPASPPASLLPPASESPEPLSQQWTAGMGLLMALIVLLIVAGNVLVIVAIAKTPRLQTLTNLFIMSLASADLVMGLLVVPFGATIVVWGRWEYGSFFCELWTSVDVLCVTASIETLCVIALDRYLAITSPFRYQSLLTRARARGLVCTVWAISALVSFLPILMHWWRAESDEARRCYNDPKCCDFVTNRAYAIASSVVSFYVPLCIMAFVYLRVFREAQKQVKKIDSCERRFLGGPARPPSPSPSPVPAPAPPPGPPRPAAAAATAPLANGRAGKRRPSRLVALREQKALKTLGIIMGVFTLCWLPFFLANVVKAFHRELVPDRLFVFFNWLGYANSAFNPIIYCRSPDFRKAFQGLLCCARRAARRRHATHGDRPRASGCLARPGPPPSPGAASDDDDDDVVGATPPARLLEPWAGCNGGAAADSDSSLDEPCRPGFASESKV
Description: Membranes containing recombinant human adrenergic beta 1 receptors were obtained from Euroscreen. These were diluted in Assay Buffer (50 mM HEPES, 1 mM EDTA, 120 mM NaCl, 0.1% gelatin, pH 7.4) to provide a final concentration of membranes that gave a clear window between maximum and minimum specific binding.
Assays were performed in U-bottomed 96-well polypropylene plates. 10 μL [^125I]-Iodocyanopindolol (0.036 nM final concentration) and 10 μL of test compound (10× final concentration) were added to each test well. For each assay plate 8 replicates were obtained for [^125I]-Iodocyanopindolol binding in the presence of 10 μL vehicle (10% (v/v) DMSO in Assay Buffer; defining maximum binding) or 10 μL Propranolol (10 μM final concentration; defining non-specific binding (NSB)). Membranes were then added to achieve a final volume of 100 μL. The plates were incubated for 2 hours at room temperature and then filtered onto PEI coated GF/B filter plates, pre-soaked for 1 hour in Assay Buffer, using a 96-well plate Tomtec cell harvester. Five washes with 250 μL wash buffer (50 mM HEPES, 1 mM EDTA, 120 mM NaCl, pH 7.4) were performed at 4° C. to remove unbound radioactivity. The plates were dried then sealed from underneath using Packard plate sealers and MicroScint-O (50 μL) was added to each well. The plates were sealed (TopSeal A) and filter-bound radioactivity was measured with a scintillation counter (TopCount, Packard BioScience) using a 3-minute counting protocol.
Total specific binding (B0) was determined by subtracting the mean NSB from the mean maximum binding. NSB values were also subtracted from values from all other wells. […] Data was fitted to a four parameter logistic equation to determine the compound potency, which was expressed as pIC50 (negative log molar concentration inducing 50% inhibition of [^125I]-Iodocyanopindolol binding).

[3] = biological target: T3, recombinant human Dopamine Subtype D2s receptors (Homo sapiens, UniProt P14416); assay: Dopamine D2 selectivity binding assay ([3H]-spiperone); conditions: inhibition of [3H]-spiperone (0.16 nM) binding; for IC50: read-out: D2 bind pIC50 (converted)
T3 construct: purchased Perkin Elmer
T3 sequence (P14416 1-414 isoform P14416-2): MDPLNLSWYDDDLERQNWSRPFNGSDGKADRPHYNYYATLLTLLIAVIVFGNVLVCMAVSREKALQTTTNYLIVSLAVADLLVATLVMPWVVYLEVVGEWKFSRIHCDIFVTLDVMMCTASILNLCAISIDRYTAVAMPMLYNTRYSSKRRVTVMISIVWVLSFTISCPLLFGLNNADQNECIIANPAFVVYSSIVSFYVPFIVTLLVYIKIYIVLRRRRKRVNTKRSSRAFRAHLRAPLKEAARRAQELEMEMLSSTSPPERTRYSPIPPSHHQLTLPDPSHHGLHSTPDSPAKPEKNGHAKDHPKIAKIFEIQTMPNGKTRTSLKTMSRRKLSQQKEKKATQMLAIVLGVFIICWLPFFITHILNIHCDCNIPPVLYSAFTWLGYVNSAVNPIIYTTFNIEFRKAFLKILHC
Method in brief: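 Recombinant human D2s membranes incubated 2 h at room temperature with 0.16 nM [3H]-spiperone in HEPES/EDTA/NaCl/gelatin buffer, pH 7.4; 10 μM haloperidol defined non-specific binding. Filter-bound radioactivity counted after cold washes. pIC50 from 4-parameter logistic fit of NSB-corrected specific binding.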

Compound | IC50 [1] | IC50 [2] | IC50 [3] | α1 bind pIC50 [1] | β1 bind p IC50 [2] | D2 bind pIC50 [3]
O=C(CCNCCc1cccc(F)c1)N(CCNCCc1ccc(O)c2[nH]c(=O)sc12)CC12CC3CC(CC(C3)C1)C2 [Example 60, N^1-(1-Adamantylmethyl)-N^3-[2-(3-fluorophenyl)ethyl]-N^1-(2-{[2-(4-hydroxy-2-oxo-2,3-dihydro-1,3-benzothiazol-7-yl)ethyl]amino}ethyl)-β-alaninamide bis-trifluoroacetic acid salt] | 316 nM | 2 µM | 794 nM |  |  | 
O=C(CCNCCc1cccc(F)c1F)N(CCNCCc1ccc(O)c2[nH]c(=O)sc12)C1CCCCC1 [Example 81, N^1-Cyclohexyl-N^3-[2-(2,3-difluorophenyl)ethyl]-N^1-(2-{[2-(4-hydroxy-2-oxo-2,3-dihydro-1,3-benzothiazol-7-yl)ethyl]amino}ethyl)-β-alaninamide bis-trifluoroacetic acid salt] | 200 nM | 6.31 µM | 316 nM |  |  | 
O=C(CCNCCc1cccc(F)c1)N(CCNCCc1ccc(O)c2[nH]c(=O)sc12)C1CCCCC1 [Example 96, N-Cyclohexyl-N^3-[2-(3-fluorophenyl)ethyl]-N-(2-{[2-(4-hydroxy-2-oxo-2,3-dihydro-1,3-benzothiazol-7-yl)ethyl]amino}ethyl)-β-alaninamide dihydrobromide salt] | 200 nM | 6.31 µM | 398 nM |  |  | 
CC(C)(CO)CN(CCNCCc1ccc(O)c2[nH]c(=O)sc12)C(=O)CCNCCc1cccc(Cl)c1 [Example 66, N^3-[2-(3-Chlorophenyl)ethyl]-N^1-(3-hydroxy-2,2-dimethylpropyl)-N^1-(2-{[2-(4-hydroxy-2-oxo-2,3-dihydro-1,3-benzothiazol-7-yl)ethyl]amino}ethyl)-β-alaninamide bis-trifluoroacetic acid salt] | 251 nM | 1.58 µM | 631 nM |  |  | 
O=C(CCNCCc1cccc(F)c1F)N(CCNCCc1ccc(O)c2[nH]c(=O)sc12)C1CCCCC1 [Example 93, N-Cyclohexyl-N^3-[2-(2,3-difluorophenyl)ethyl]-N-(2-{[2-(4-hydroxy-2-oxo-2,3-dihydro-1,3-benzothiazol-7-yl)ethyl]amino}ethyl)-β-alaninamide dihydrobromide salt] |  |  |  | 6.7 | 5.2 | 6.5
C[C@H](CNCCC(=O)N(CCNCCc1ccc(O)c2[nH]c(=O)sc12)C1CCCC1)c1ccccc1 [Example 31, N-cyclopentyl-N-(2-{[2-(4-hydroxy-2-oxo-2,3-dihydro-1,3-benzothiazol-7-yl)ethyl]amino}ethyl)-N^3-[(2S)-2-phenylpropyl]-β-alaninamide bis-trifluoroacetic acid salt] | 200 nM | 6.31 µM | 251 nM |  |  | 
O=C(CCNC[C@@H](O)c1ccccc1)N(CCNCCc1ccc(O)c2[nH]c(=O)sc12)C1CCCCC1 [Example 74, N^1-Cyclohexyl-N^1-(2-{[2-(4-hydroxy-2-oxo-2,3-dihydro-1,3-benzothiazol-7-yl)ethyl]amino}ethyl)-N^3-[(2S)-2-hydroxy-2-phenylethyl]-β-alaninamide bis-trifluoroacetic acid salt] | 251 nM | 3.16 µM | 501 nM |  |  | 

Further lines, with some results ahead:

IC50 [1] | IC50 [2] | IC50 [3] | Compound | α1 bind pIC50 [1] | β1 bind p IC50 [2] | D2 bind pIC50 [3]
63.1 nM | 3.16 µM | 158 nM | O=C(CCNCCc1cc(F)ccc1F)N(CCNCCc1ccc(O)c2[nH]c(=O)sc12)C1CCCCC1 [Example 79, N^1-Cyclohexyl-N^3-[2-(2,5-difluorophenyl)ethyl]-N^1-(2-{[2-(4-hydroxy-2-oxo-2,3-dihydro-1,3-benzothiazol-7-yl)ethyl]amino}ethyl)-β-alaninamide bis-trifluoroacetic acid salt] |  |  | 
501 nM | 5.01 µM | 398 nM | CC(C)(C)CN(CCNCCc1ccc(O)c2[nH]c(=O)sc12)C(=O)CCNCCc1ccc(Cl)cc1 [Example 8, N^3-[2-(4-Chlorophenyl)ethyl]-N-(2,2-dimethylpropyl)-N-(2-{[2-(4-hydroxy-2-oxo-2,3-dihydro-1,3-benzothiazol-7-yl)ethyl]amino}ethyl)-β-alaninamide bis-trifluoroacetic acid salt] |  |  | 
316 nM | 3.16 µM | 126 nM | O=C(CCNCCc1ccc(Cl)cc1)N(CCNCCc1ccc(O)c2[nH]c(=O)sc12)C1CCCCC1 [Example 13, N^3-[2-(4-Chlorophenyl)ethyl]-N-cyclohexyl-N-(2-{[2-(4-hydroxy-2-oxo-2,3-dihydro-1,3-benzothiazol-7-yl)ethyl]amino}ethyl)-β-alaninamide bis-trifluoroacetic acid salt] |  |  | 
316 nM | 2.51 µM | 794 nM | O=C(CCNCCc1ccc(F)cc1)N(CCNCCc1ccc(O)c2[nH]c(=O)sc12)CC12CC3CC(CC(C3)C1)C2 [Example 61, N^1-(1-Adamantylmethyl)-N^3-[2-(4-fluorophenyl)ethyl]-N^1-(2-{[2-(4-hydroxy-2-oxo-2,3-dihydro-1,3-benzothiazol-7-yl)ethyl]amino}ethyl)-β-alaninamide bis-trifluoroacetic acid salt] |  |  | 
158 nM | 3.98 µM | 200 nM | O=C(CCNCCc1ccc2c(c1)OCO2)N(CCNCCc1ccc(O)c2[nH]c(=O)sc12)C1CCCCC1 [Example 76, N^3-[2-(1,3-Benzodioxol-5-yl)ethyl]-N^1-cyclohexyl-N^1-(2-{[2-(4-hydroxy-2-oxo-2,3-dihydro-1,3-benzothiazol-7-yl)ethyl]amino}ethyl)-β-alaninamide bis-trifluoroacetic acid salt] |  |  | 
200 nM | 3.98 µM | 100 nM | O=C(CCNCCc1cccc(O)c1)N(CCNCCc1ccc(O)c2[nH]c(=O)sc12)C1CCCCC1 [Example 71, N^1-Cyclohexyl-N^1-(2-{[2-(4-hydroxy-2-oxo-2,3-dihydro-1,3-benzothiazol-7-yl)ethyl]amino}ethyl)-N^3-[2-(3-hydroxyphenyl)ethyl]-β-alaninamide bis-trifluoroacetic acid salt] |  |  | 
631 nM | 2.51 µM | 100 nM | O=C(CCNCCc1ccc(Cl)cc1)N(CCNCCc1ccc(O)c2[nH]c(=O)sc12)C1CCC(F)(F)CC1 [Example 48, N^3-[2-(4-Chlorophenyl)ethyl]-N^1-(4,4-difluorocyclohexyl)-N^1-(2-{[2-(4-hydroxy-2-oxo-2,3-dihydro-1,3-benzothiazol-7-yl)ethyl]amino}ethyl)-β-alaninamide bis-trifluoroacetic acid salt] |  |  | 
50.1 nM | 2.51 µM | 31.6 nM | O=C(CCNCCc1ccc(F)cc1Cl)N(CCNCCc1ccc(O)c2[nH]c(=O)sc12)C1CCCCCC1 [Example 57, N^3-[2-(2-Chloro-4-fluorophenyl)ethyl]-N^1-cycloheptyl-N^1-(2-{[2-(4-hydroxy-2-oxo-2,3-dihydro-1,3-benzothiazol-7-yl)ethyl]amino}ethyl)-β-alaninamide bis-trifluoroacetic acid salt] |  |  | 
